{"source": "patent US10000783B2", "about": "“Steviol glucosyltransferases and genes encoding the same” (SUNTORY HOLDINGS LIMITED, priority 2012, dated 2018)", "molecules": {"B1": {"name": "UGT91D2e: prior art glucosyltransferase (Patent Document 3), SEQ ID NO: 32, short by the 12 amino acids (protein, listed as Stevia rebaudiana)", "chain": "MATSDSIVDDRKQLHVATFPWLAFGHILPYLQLSKLIAEKGHKVSFLSTTRNIQRLSSHISPLINVVQLTLPRVQELPEDAEATTDVHPEDIPYLKKASDGLQPEVTRFLEQHSPDWIIYDYTHYWLPSIAASLGISRAHFSVTTPWAIAYMGPSADAMINGSDGRTTVEDLTTPPKWFPFPTKVCWRKHDLARLVPYKAPGISDGYRMGLVLKGSDCLLSKCYHEFGTQWLPLLETLHQVPVVPVGLLPPEIPGDEKDETWVSIKKWLDGKQKGSVVYVALGSEVLVSQTEVVELALGLELSGLPFVWAYRKPKGPAKSDSVELPDGFVERTRDRGLVWTSWAPQLRILSHESVCGFLTHCGSGSIVEGLMFGHPLIMLPIFGDQPLNARLLEDKQVGIEIPRNEEDGCLTKESVARSLRSVVVEKEGEIYKANARELSKIYNDTKVEKEYVSQFVDYLEKNARAVAIDHES"}, "B2": {"name": "UGT91D1: known stevia glucosyltransferase, GENBANK Accession No. AY345980 (protein, UniProt Q6VAA8 1-485, looked up)", "UDP-glycosyltransferase 91D1": "MYNVTYHQNSKAMATSDSIVDDRKQLHVATFPWLAFGHILPFLQLSKLIAEKGHKVSFLSTTRNIQRLSSHISPLINVVQLTLPRVQELPEDAEATTDVHPEDIQYLKKAVDGLQPEVTRFLEQHSPDWIIYDFTHYWLPSIAASLGISRAYFCVITPWTIAYLAPSSDAMINDSDGRTTVEDLTTPPKWFPFPTKVCWRKHDLARMEPYEAPGISDGYRMGMVFKGSDCLLFKCYHEFGTQWLPLLETLHQVPVVPVGLLPPEIPGDEKDETWVSIKKWLDGKQKGSVVYVALGSEALVSQTEVVELALGLELSGLPFVWAYRKPKGPAKSDSVELPDGFVERTRDRGLVWTSWAPQLRILSHESVCGFLTHCGSGSIVEGLMFGHPLIMLPIFCDQPLNARLLEDKQVGIEIPRNEEDGCLTKESVARSLRSVVVENEGEIYKANARALSKIYNDTKVEKEYVSQFVDYLEKNARAVAIDHES"}, "B3": {"name": "UGT91D-like3: novel stevia glucosyltransferase, amino acid sequence SEQ ID NO: 2 (protein, listed as Stevia rebaudiana)", "chain": "MYNVTYHQNSKAMATSDSIVDDRKQLHVATFPWLAFGHILPYLQLSKLIAEKGHKVSFLSTTRNIQRLSSHISPLINVVQLTLPRVQELPEDAEATTDVHPEDIPYLKKASDGLQPEVTRFLEQHSPDWIIYDYTHYWLPSIAASLGISRAHFSVTTPWAIAYMGPSADAMINGSDGRTTVEDLTTPPKWFPFPTKVCWRKHDLARLVPYKAPGISDGYRMGLVLKGSDCLLSKCYHEFGTQWLPLLETLHQVPVVPVGLLPPEIPGDEKDETWVSIKKWLDGKQKGSVVYVALGSEVLVSQTEVVELALGLELSGLPFVWAYRKPKGPAKSDSVELPDGFVERTRDRGLVWTSWAPQLRILSHESVCGFLTHCGSGSIVEGLMFGHPLIMLPIFGDQPLNARLLEDKQVGIEIPRNEEDGCLTKESVARSLRSVVVEKEGEIYKANARELSKIYNDTKVEKEYVSQFVDYLEKNARAVAIDHES"}}, "key": {"UGT91D-like3": {"tested_on": "UGT91D-like3", "assay": "Assay for enzyme activity of UGT91D-like3 on glycosyl acceptor substrates, LC-MS analysis", "format": "biochemical, stevia", "details": "for product formation on reaction of the glycosyl acceptor substrate with UGT91D-like3: 2 mM UDP-glucose, 0.1 mM glycosyl acceptor substrate, potassium phosphate buffer pH 7.0, 30° C., an hour, LC-MS", "description": "(§1) Standard conditions for the enzyme reaction were as follows: A reaction solution (2 mM UDP-glucose, 0.1 mM glycosyl acceptor substrate, 100 mM potassium phosphate buffer (pH 7.0) and 25 μl of purified UGT91D-like3 enzyme solution) was prepared in distilled water to become 50 μl, and reacted at 30° C. for an hour. LC-MS analysis was performed for 5 μl of the enzyme reaction solution under the following conditions.\nColumn: Waters Sunfire C18 3.5 um […]\nMoving phase: A: MilliQ Water (+0.05% formic acid), B: MeCN\nGradient: linear density gradient from 15% to 55% in B density (20 mins.)\nSteviolmonoside (peak B) was prepared by reacting UGT85C2 and steviol (peak A), and the steviolmonoside was reacted with UGT91D-like3. […] This peak was identified as steviolbioside based on the retention time and mass fragmentation pattern. […] It was confirmed that UGT91D-like3 had the activity of forming steviolbioside (peak C) by glucosylation of steviolmonoside (peak B)."}, "[1]": {"assay": "Comparison in relative enzyme activity between recombinant UGT proteins, rubusoside as substrate", "format": "biochemical, stevia", "details": "for relative enzyme activity (amount of stevioside produced divided by amount of protein): glucosylation activity of UGT91D2e made 100%", "description": "as §1\nAs given below, the Escherichia coli expression construct of UGT91D2e was prepared, and the enzyme activities of UGT91D2e and UGT91D-like3 were evaluated by the same manner as in EXAMPLES 3 and 4.\nThe enzyme activities were compared between the purified proteins of UGT91D-like3 and UGT91D2e expressed in Escherichia coli. Using rubusoside as substrate, the comparison was made under the same enzyme reaction conditions and analysis conditions as in EXAMPLE 4. A relative enzyme activity was calculated by dividing the amount of stevioside produced by the amount of the protein provided for the reaction."}, "[2]": {"details": "reported in the prior art (Non-Patent Document 2); cited from earlier work"}}, "data": [{"molecule": "C=C1C[C@@]23CC[C@H]4[C@@](C)(CCC[C@@]4(C)C(=O)O)[C@@H]2CC[C@]1(O)C3", "note": "[steviol]", "values": [{"measurement": "product formation on reaction of the glycosyl acceptor substrate with UGT91D-like3", "setting": "UGT91D-like3", "result": "no product was detected"}]}, {"molecule": "C=C1C[C@@]23CC[C@H]4[C@@](C)(CCC[C@@]4(C)C(=O)O)[C@@H]2CC[C@]1(O[C@@H]1O[C@H](CO)[C@@H](O)[C@H](O)[C@H]1O[C@@H]1O[C@H](CO)[C@@H](O)[C@H](O)[C@H]1O)C3", "note": "[steviolbioside]", "values": [{"measurement": "product formation on reaction of the glycosyl acceptor substrate with UGT91D-like3", "setting": "UGT91D-like3", "result": "any new product was not detected"}]}, {"molecule": "O=c1ccn([C@@H]2O[C@H](COP(=O)(O)OP(=O)(O)O[C@H]3OC[C@@H](O)[C@H](O)[C@H]3O)[C@@H](O)[C@H]2O)c(=O)[nH]1", "note": "[UDP-xylose]", "values": [{"measurement": "use as sugar donor by UGT91D-like3", "setting": "UGT91D-like3", "result": "did not use UDP-xylose as the sugar donor"}]}, {"molecule": "C=C1C[C@@]23CC[C@H]4[C@@](C)(CCC[C@@]4(C)C(=O)O[C@@H]4O[C@H](CO)[C@@H](O)[C@H](O)[C@H]4O)[C@@H]2CC[C@]1(O[C@@H]1O[C@H](CO)[C@@H](O)[C@H](O)[C@H]1O)C3", "note": "[rubusoside]", "values": [{"measurement": "product formation on reaction of the glycosyl acceptor substrate with UGT91D-like3", "setting": "UGT91D-like3", "result": "gave a new peak E"}]}, {"molecule": "C=C1C[C@@]23CC[C@H]4[C@@](C)(CCC[C@@]4(C)C(=O)O)[C@@H]2CC[C@]1(O[C@@H]1O[C@H](CO)[C@@H](O)[C@H](O)[C@H]1O)C3", "note": "[steviolmonoside]", "values": [{"measurement": "product formation on reaction of the glycosyl acceptor substrate with UGT91D-like3", "setting": "UGT91D-like3", "result": "a new product (peak C) was detected"}]}, {"molecule": "B1", "values": [{"measurement": "relative enzyme activity (amount of stevioside produced divided by amount of protein)", "setting": "[1]", "result": 100, "unit": "%"}]}, {"molecule": "B2", "values": [{"measurement": "activity for steviolmonoside", "setting": "[2]", "result": "no activity"}]}, {"molecule": "B3", "values": [{"measurement": "relative enzyme activity per protein amount higher than UGT91D2e", "setting": "[1]", "result": 67, "unit": "%"}, {"measurement": "relative enzyme activity (amount of stevioside produced divided by amount of protein)", "setting": "[1]", "result": 167, "unit": "%"}]}]}
